Results: PubChem BioAssay AID328 (DTP/NCI, 2004)
Toxic doses and inconclusive results are not listed.

Tested on: BDF1 mice, P388 leukemia ip, median survival T/C
Experiment: NCI In Vivo Anticancer Drug Screen. Data for tumor model P388 Leukemia (intraperitoneal) in B6D2F1 (BDF1) mice
Settings: endpoint: median survival time, higher = longer survival
Procedure, shortened: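 Transplantable tumour in mice; compound vs vehicle dosing; survival scored; ratio of treated to control reported.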

[1] = dose: 100.0 mg/kg/injection, schedule: Q01DX009 (ip), vehicle: saline with Tween-80
[2] = dose: 200.0 mg/kg/injection, schedule: Q01DX009 (ip), vehicle: saline with Tween-80
[3] = dose: 100.0 mg/kg/injection, schedule: Q04DX003 (ip), vehicle: saline
[4] = dose: 50.0 mg/kg/injection, schedule: Q01DX009 (ip), vehicle: saline with Tween-80

CC(O)C(NCNC(=O)C1=C(O)C2(O)C(=O)C3=C(O)c4c(O)cccc4C(C)(O)C3CC2C(N(C)C)C1=O)C(=O)O (stereo not given)
T/C [1]: 91 % of control
T/C [2]: 100 % of control
T/C (dose: 400.0 mg/kg/injection, schedule: Q01DX009 (ip), vehicle: saline with Tween-80): 87 % of control

CN(c1ccccc1)P(=O)(N1CC1)N1CC1
T/C (dose: 25.0 mg/kg/injection, schedule: Q04DX003 (ip), vehicle: saline with Tween-80): 172 % of control
T/C (dose: 37.5 mg/kg/injection, schedule: Q04DX003 (ip), vehicle: saline with Tween-80): 250 % of control

CCSSC(=Nc1ccccc1)OCC(C)C
T/C (dose: 50.0 mg/kg/injection, schedule: Q01DX009 (ip), vehicle: other): 119 % of control

COc1cc(/C=N/NC(=O)C(=O)Nc2cccc(Cl)c2)cc(OC)c1O
T/C (dose: 50.0 mg/kg/injection, schedule: Q01DX005 (ip), vehicle: saline with Tween-80): 91 % of control
T/C (dose: 100.0 mg/kg/injection, schedule: Q01DX005 (ip), vehicle: saline with Tween-80): 100 % of control
T/C (dose: 200.0 mg/kg/injection, schedule: Q01DX005 (ip), vehicle: saline with Tween-80): 100 % of control

CCCCC[C@H](CN(C)C)[C@H](O)/C=C/c1ccc(Cl)cc1
T/C (dose: 12.5 mg/kg/injection, schedule: Q01DX009 (ip), vehicle: saline): 101 % of control
T/C (dose: 25.0 mg/kg/injection, schedule: Q01DX009 (ip), vehicle: saline): 112 % of control
T/C (dose: 50.0 mg/kg/injection, schedule: Q01DX009 (ip), vehicle: saline): 108 % of control

Cc1ccc(SS(=O)(=O)c2ccc(C)cc2)cc1
T/C (dose: 25.0 mg/kg/injection, schedule: Q01DX009 (ip), vehicle: saline sonified): 108 % of control
T/C (dose: 50.0 mg/kg/injection, schedule: Q01DX009 (ip), vehicle: saline sonified): 117 % of control
T/C (dose: 100.0 mg/kg/injection, schedule: Q01DX009 (ip), vehicle: saline sonified): 117 % of control

COc1ccc(N2CSC(=S)N(c3ccc(OC)cc3)C2)cc1
T/C (dose: 100.0 mg/kg/injection, schedule: Q01DX001 (ip), vehicle: Klucel (hydroxypropylcellulose) (HPC)): 100 % of control
T/C (dose: 100.0 mg/kg/injection, schedule: Q04DX003 (ip), vehicle: Klucel (hydroxypropylcellulose) (HPC)): 95 % of control
T/C [3]: 87 % of control
T/C (dose: 200.0 mg/kg/injection, schedule: Q01DX001 (ip), vehicle: Klucel (hydroxypropylcellulose) (HPC)): 87 % of control
T/C (dose: 200.0 mg/kg/injection, schedule: Q04DX003 (ip), vehicle: Klucel (hydroxypropylcellulose) (HPC)): 91 % of control
T/C (dose: 400.0 mg/kg/injection, schedule: Q01DX001 (ip), vehicle: Klucel (hydroxypropylcellulose) (HPC)): 95 % of control
T/C (dose: 400.0 mg/kg/injection, schedule: Q04DX003 (ip), vehicle: Klucel (hydroxypropylcellulose) (HPC)): 104 % of control
T/C (dose: 400.0 mg/kg/injection, schedule: Q04DX003 (ip), vehicle: saline): 100 % of control

c1ccc2c(c1)ccc1nc3c4ccccc4c4ccccc4c3nc12
T/C [4]: 114 % of control
T/C [1]: 113 % of control
T/C [2]: 105 % of control

O=C(Nc1cccc(C(F)(F)F)c1)C12CC3CC(CC(C3)C1)C2
T/C (dose: 12.5 mg/kg/injection, schedule: Q01DX009 (ip), vehicle: saline with Tween-80): 92 % of control
T/C [4]: 87 % of control
T/C [1]: 90 % of control

C/C(=N\[N+](C)(C)C)c1ccccc1
T/C (dose: 50.0 mg/kg/injection, schedule: Q04DX003 (ip), vehicle: saline): 95 % of control
T/C [3]: 109 % of control

CCNSc1ccccc1
T/C (dose: 12.5 mg/kg/injection, schedule: Q01DX009 (ip), vehicle: Klucel (hydroxypropylcellulose) (HPC)): 109 % of control
T/C (dose: 25.0 mg/kg/injection, schedule: Q01DX009 (ip), vehicle: Klucel (hydroxypropylcellulose) (HPC)): 110 % of control
T/C (dose: 50.0 mg/kg/injection, schedule: Q01DX009 (ip), vehicle: Klucel (hydroxypropylcellulose) (HPC)): 106 % of control

Cc1cccc(-n2nc3c(=O)n(C)c(=O)n(C)c3nc2=O)c1
T/C (dose: 100.0 mg/kg/injection, schedule: Q01DX001 (ip), vehicle: saline with Tween-80): 88 % of control
T/C (dose: 200.0 mg/kg/injection, schedule: Q01DX001 (ip), vehicle: saline with Tween-80): 96 % of control
T/C (dose: 400.0 mg/kg/injection, schedule: Q01DX001 (ip), vehicle: saline with Tween-80): 92 % of control

CC(=N\O)/C(C)=N/O.CC(=N\O)/C(C)=N/O.[Cu]
T/C (dose: 3.0 mg/kg/injection, schedule: Q01DX009 (ip), vehicle: Klucel (hydroxypropylcellulose) (HPC)): 100 % of control
T/C (dose: 6.25 mg/kg/injection, schedule: Q04DX003 (ip), vehicle: Klucel (hydroxypropylcellulose) (HPC)): 118 % of control
T/C (dose: 12.5 mg/kg/injection, schedule: Q04DX003 (ip), vehicle: Klucel (hydroxypropylcellulose) (HPC)): 118 % of control
